Assay results from ChEMBL document CHEMBL1201861, “Genomics of Drug Sensitity in Cancer screening data, Wellcome Trust Sanger Institute”.

How the values were obtained:
Assay in all cases: cells
TE-8 = type: functional, cell-based, Homo sapiens; settings: Homo sapiens, TE-8
Description: SANGER: Inhibition of human TE-8 cell growth in a cell viability assay.

OCUB-M = type: functional, cell-based, Homo sapiens; settings: Homo sapiens, OCUB-M
Description: SANGER: Inhibition of human OCUB-M cell growth in a cell viability assay.

NCI-H2087 = type: functional, cell-based, Homo sapiens; settings: Homo sapiens, NCI-H2087
Description: SANGER: Inhibition of human NCI-H2087 cell growth in a cell viability assay.

C3A = type: functional, cell-based, Homo sapiens; settings: Homo sapiens, C3A
Description: SANGER: Inhibition of human C3A cell growth in a cell viability assay.

JVM-3 = type: functional, cell-based; settings: Homo sapiens
Description: SANGER: Inhibition of human JVM-3 cell growth in a cell viability assay.

CAL-62 = type: functional, cell-based, Homo sapiens; settings: Homo sapiens, CAL-62
Description: SANGER: Inhibition of human CAL-62 cell growth in a cell viability assay.

OVCAR-8 = type: functional, cell-based, Homo sapiens; settings: Homo sapiens, OVCAR-8
Description: SANGER: Inhibition of human OVCAR-8 cell growth in a cell viability assay.

COLO-824 = type: functional, cell-based, Homo sapiens; settings: Homo sapiens, COLO-824
Description: SANGER: Inhibition of human COLO-824 cell growth in a cell viability assay.

NCI-H2405 = type: functional, cell-based, Homo sapiens; settings: Homo sapiens, NCI-H2405
Description: SANGER: Inhibition of human NCI-H2405 cell growth in a cell viability assay.

NCI-H82 = type: functional, cell-based; settings: Homo sapiens
Description: SANGER: Inhibition of human NCI-H82 cell growth in a cell viability assay.

SW1990 = type: functional, cell-based, Homo sapiens; settings: Homo sapiens, SW1990
Description: SANGER: Inhibition of human SW1990 cell growth in a cell viability assay.

EOL1 = type: functional, cell-based; settings: Homo sapiens
Description: SANGER: Inhibition of human EoL-1-cell cell growth in a cell viability assay.

BPH-1 = type: functional, cell-based, Homo sapiens; settings: Homo sapiens, BPH-1
Description: SANGER: Inhibition of human BPH-1 cell growth in a cell viability assay.

J-RT3-T3-5 = type: functional, cell-based; settings: Homo sapiens
Description: SANGER: Inhibition of human J-RT3-T3-5 cell growth in a cell viability assay.

CAKI-1 = type: functional, cell-based, Homo sapiens; settings: Homo sapiens, CAKI-1
Description: SANGER: Inhibition of human CAKI-1 cell growth in a cell viability assay.

LAN-6 = type: functional, cell-based, Homo sapiens; settings: Homo sapiens, LAN-6
Description: SANGER: Inhibition of human LAN-6 cell growth in a cell viability assay.

KINGS-1 = type: functional, cell-based, Homo sapiens; settings: Homo sapiens, KINGS-1
Description: SANGER: Inhibition of human KINGS-1 cell growth in a cell viability assay.

SiHa = type: functional, cell-based, Homo sapiens; settings: Homo sapiens, SiHa
Description: SANGER: Inhibition of human SiHa cell growth in a cell viability assay.

no-10 = type: functional, cell-based, Homo sapiens; settings: Homo sapiens
Description: SANGER: Inhibition of human no-10 cell growth in a cell viability assay.

NKM-1 = type: functional, cell-based; settings: Homo sapiens
Description: SANGER: Inhibition of human NKM-1 cell growth in a cell viability assay.

KS-1 = type: functional, cell-based, Homo sapiens; settings: Homo sapiens, KS-1
Description: SANGER: Inhibition of human KS-1 cell growth in a cell viability assay.

MPP-89 = type: functional, cell-based, Homo sapiens; settings: Homo sapiens, MPP-89
Description: SANGER: Inhibition of human MPP-89 cell growth in a cell viability assay.

CAL-85-1 = type: functional, cell-based; settings: Homo sapiens
Description: SANGER: Inhibition of human CAL-85-1 cell growth in a cell viability assay.

NCI-H292 = type: functional, cell-based, Homo sapiens; settings: Homo sapiens, NCI-H292
Description: SANGER: Inhibition of human NCI-H292 cell growth in a cell viability assay.

ES1 = type: functional, cell-based, Homo sapiens; settings: Homo sapiens, ES1
Description: SANGER: Inhibition of human ES1 cell growth in a cell viability assay.

MG-63 = type: functional, cell-based, Homo sapiens; settings: Homo sapiens, MG-63
Description: SANGER: Inhibition of human MG-63 cell growth in a cell viability assay.

NCI-H2347 = type: functional, cell-based, Homo sapiens; settings: Homo sapiens, NCI-H2347
Description: SANGER: Inhibition of human NCI-H2347 cell growth in a cell viability assay.

SAOS-2 = type: functional, cell-based, Homo sapiens; settings: Homo sapiens, SAOS-2
Description: SANGER: Inhibition of human Saos-2 cell growth in a cell viability assay.

TCC-SUP = type: functional, cell-based, Homo sapiens; settings: Homo sapiens, TCC-SUP
Description: SANGER: Inhibition of human TCCSUP cell growth in a cell viability assay.

ESS-1 = type: functional, cell-based, Homo sapiens; settings: Homo sapiens, ESS-1
Description: SANGER: Inhibition of human ESS-1 cell growth in a cell viability assay.

SW626 = type: functional, cell-based, Homo sapiens; settings: Homo sapiens, SW626
Description: SANGER: Inhibition of human SW626 cell growth in a cell viability assay.

HCC1187 = type: functional, cell-based, Homo sapiens; settings: Homo sapiens, HCC1187
Description: SANGER: Inhibition of human HCC1187 cell growth in a cell viability assay.

HCC1395 = type: functional, cell-based, Homo sapiens; settings: Homo sapiens, HCC1395
Description: SANGER: Inhibition of human HCC1395 cell growth in a cell viability assay.

KYSE-70 cell line = type: functional, cell-based, Homo sapiens; settings: Homo sapiens, KYSE-70
Description: SANGER: Inhibition of human KYSE-70 cell growth in a cell viability assay.

COLO-792 = type: functional, cell-based, Homo sapiens; settings: Homo sapiens, COLO-792
Description: SANGER: Inhibition of human COLO-792 cell growth in a cell viability assay.

SW872 = type: functional, cell-based, Homo sapiens; settings: Homo sapiens, SW872
Description: SANGER: Inhibition of human SW872 cell growth in a cell viability assay.

KNS-42 = type: functional, cell-based, Homo sapiens; settings: Homo sapiens, KNS-42
Description: SANGER: Inhibition of human KNS-42 cell growth in a cell viability assay.

AN3-CA = type: functional, cell-based; settings: Homo sapiens
Description: SANGER: Inhibition of human AN3-CA cell growth in a cell viability assay.

RVH-421 = type: functional, cell-based, Homo sapiens; settings: Homo sapiens, RVH-421
Description: SANGER: Inhibition of human RVH-421 cell growth in a cell viability assay.

NB5 = type: functional, cell-based, Homo sapiens; settings: Homo sapiens, NB5
Description: SANGER: Inhibition of human NB5 cell growth in a cell viability assay.

ACN = type: functional, cell-based, Homo sapiens; settings: Homo sapiens, ACN
Description: SANGER: Inhibition of human ACN cell growth in a cell viability assay.

D-247MG = type: functional, cell-based, Homo sapiens; settings: Homo sapiens, D-247MG
Description: SANGER: Inhibition of human D-247MG cell growth in a cell viability assay.

LN-405 = type: functional, cell-based, Homo sapiens; settings: Homo sapiens, LN-405
Description: SANGER: Inhibition of human LN-405 cell growth in a cell viability assay.

COR-L23 = type: functional, cell-based, Homo sapiens; settings: Homo sapiens, COR-L23
Description: SANGER: Inhibition of human COR-L23 cell growth in a cell viability assay.

NCI-H661 = type: functional, cell-based, Homo sapiens; settings: Homo sapiens, NCI-H661
Description: SANGER: Inhibition of human NCI-H661 cell growth in a cell viability assay.

C32 = type: functional, cell-based, Homo sapiens; settings: Homo sapiens, C32
Description: SANGER: Inhibition of human C32 cell growth in a cell viability assay.

SF-126 = type: functional, cell-based, Homo sapiens; settings: Homo sapiens, SF-126
Description: SANGER: Inhibition of human SF126 cell growth in a cell viability assay.

SAS = type: functional, cell-based, Homo sapiens; settings: Homo sapiens, SAS
Description: SANGER: Inhibition of human SAS cell growth in a cell viability assay.

NCI-H358 = type: functional, cell-based, Homo sapiens; settings: Homo sapiens, NCI-H358
Description: SANGER: Inhibition of human NCI-H358 cell growth in a cell viability assay.

SK-LU-1 = type: functional, cell-based, Homo sapiens; settings: Homo sapiens, SK-LU-1
Description: SANGER: Inhibition of human SK-LU-1 cell growth in a cell viability assay.

LB373-MEL-D = type: functional, cell-based, Homo sapiens; settings: Homo sapiens, LB373-MEL-D
Description: SANGER: Inhibition of human LB373-MEL-D cell growth in a cell viability assay.

## COc1ccc(C2=N[C@@H](c3ccc(Cl)cc3)[C@@H](c3ccc(Cl)cc3)N2C(=O)N2CCNC(=O)C2)c(OC(C)C)c1 [NUTLIN-3]
TE-8
  IC50: > 8 µM
OCUB-M
  IC50: > 8 µM
NCI-H2087
  IC50: > 8 µM
C3A
  IC50: > 8 µM
JVM-3
  IC50: 2.59 µM
CAL-62
  IC50: > 8 µM
OVCAR-8
  IC50: > 8 µM
COLO-824
  IC50: > 8 µM
NCI-H2405
  IC50: > 8 µM
NCI-H82
  IC50: > 8 µM
SW1990
  IC50: > 8 µM
EOL1
  IC50: 1.27 µM
BPH-1
  IC50: > 8 µM
J-RT3-T3-5
  IC50: > 8 µM
CAKI-1
  IC50: 3.13 µM
LAN-6
  IC50: > 8 µM
KINGS-1
  IC50: > 8 µM
SiHa
  IC50: > 8 µM
no-10
  IC50: > 8 µM
NKM-1
  IC50: 1.05 µM
KS-1
  IC50: 3.02 µM
MPP-89
  IC50: > 8 µM
CAL-85-1
  IC50: > 8 µM
NCI-H292
  IC50: 3.12 µM
ES1
  IC50: > 8 µM
MG-63
  IC50: > 8 µM
NCI-H2347
  IC50: > 8 µM
SAOS-2
  IC50: > 8 µM
TCC-SUP
  IC50: > 8 µM
ESS-1
  IC50: > 8 µM
SW626
  IC50: > 8 µM
HCC1187
  IC50: > 8 µM
HCC1395
  IC50: > 8 µM
KYSE-70 cell line
  IC50: > 8 µM
COLO-792
  IC50: > 8 µM
SW872
  IC50: > 8 µM
KNS-42
  IC50: > 8 µM
AN3-CA
  IC50: > 8 µM
RVH-421
  IC50: 6.42 µM
NB5
  IC50: 6.56 µM
ACN
  IC50: > 8 µM
D-247MG
  IC50: 4.75 µM
LN-405
  IC50: > 8 µM
COR-L23
  IC50: > 8 µM
NCI-H661
  IC50: 7.87 µM
C32
  IC50: 5.6 µM
SF-126
  IC50: > 8 µM
SAS
  IC50: > 8 µM
NCI-H358
  IC50: 7.45 µM
SK-LU-1
  IC50: > 8 µM

## C=CCc1cccc(/C=N/NC(=O)CN2CCN(Cc3ccccc3)CC2)c1O [PAC-1]
TE-8
  IC50: > 2.56 µM
OCUB-M
  IC50: > 2.56 µM
NCI-H2087
  IC50: > 2.56 µM
C3A
  IC50: > 2.56 µM
JVM-3
  IC50: > 2.56 µM
CAL-62
  IC50: > 2.56 µM
OVCAR-8
  IC50: > 2.56 µM
COLO-824
  IC50: > 2.56 µM
LB373-MEL-D
  IC50: > 2.56 µM
NCI-H2405
  IC50: > 2.56 µM
NCI-H82
  IC50: > 2.56 µM
SW1990
  IC50: > 2.56 µM
EOL1
  IC50: > 2.56 µM
BPH-1
  IC50: > 2.56 µM
J-RT3-T3-5
  IC50: 1.2 µM
CAKI-1
  IC50: > 2.56 µM
LAN-6
  IC50: > 2.56 µM
KINGS-1
  IC50: > 2.56 µM
SiHa
  IC50: > 2.56 µM
no-10
  IC50: > 2.56 µM
NKM-1
  IC50: > 2.56 µM
KS-1
  IC50: > 2.56 µM
MPP-89
  IC50: > 2.56 µM
CAL-85-1
  IC50: > 2.56 µM
NCI-H292
  IC50: > 2.56 µM
ES1
  IC50: > 2.56 µM
MG-63
  IC50: > 2.56 µM
NCI-H2347
  IC50: > 2.56 µM
SAOS-2
  IC50: > 2.56 µM
TCC-SUP
  IC50: > 2.56 µM
ESS-1
  IC50: > 2.56 µM
SW626
  IC50: > 2.56 µM
HCC1187
  IC50: > 2.56 µM
HCC1395
  IC50: > 2.56 µM
KYSE-70 cell line
  IC50: > 2.56 µM
COLO-792
  IC50: > 2.56 µM
SW872
  IC50: > 2.56 µM
KNS-42
  IC50: > 2.56 µM
AN3-CA
  IC50: > 2.56 µM
RVH-421
  IC50: > 2.56 µM
NB5
  IC50: > 2.56 µM
ACN
  IC50: 1.79 µM
LN-405
  IC50: > 2.56 µM
COR-L23
  IC50: > 2.56 µM
NCI-H661
  IC50: > 2.56 µM
C32
  IC50: > 2.56 µM
SF-126
  IC50: > 2.56 µM
SAS
  IC50: > 2.56 µM
NCI-H358
  IC50: 1.24 µM
SK-LU-1
  IC50: > 2.56 µM
